# Experimental data published in patent publication US20070276011A1, “Plasminogen Activator Inhibitor-1 Inhibitor” (priority 2003, published 2007).
# pIC50: −log10 of the molar value.
# Tests used:
# [1] = target: T1, recombinant human PAI-1 (Homo sapiens, UniProt P05121); assay: Inhibition of complex formation of PAI-1 and tPA (SDS-PAGE); type: biochemical; conditions: 100 μM concentration
# Method: To a 2.5 μL solution obtained by diluting a DMSO solution of the test compound at 4-fold concentration of the test concentration with PBS(-), 5 μL of 150 nM recombinant human PAI-1 solution adjusted with a phosphate buffer (pH6.6, 0.05M Sodium Phosphate, 0.1 M NaCl, 1 mM EDTA) was added, and reacted for 5 minutes at 37° C. […] of 600 nM recombinant human one-chain tPA solution adjusted with PBS(-) was added, and further reacted for 5 minutes at 37° C. 10 μL of stop buffer (1.25 mM Tris-HCl pH6.8, 4% SDS, 0.01% BPB, 14% Glycerol) was added, heated for 30 seconds at 100° C., and then the total amount of 20 μL was applied to 10% SDS-PAGE gel electrophoresis. When the test compound was not added as being a control, a band of PAI-1-tPA complex was observed.
# [2] = target: T1, recombinant human PAI-1; assay: PAI-1 inhibitory activity, Test Method A (tPA fluorogenic substrate, Tris buffer pH8.0, 37 C); type: biochemical; conditions: for Inhibitory Ratio at 25 μM (%): Test Method A; for pIC50: 50% inhibitory concentration of PAI-1 activity, according to the aforementioned method
# T1 sequence (P05121 24-402): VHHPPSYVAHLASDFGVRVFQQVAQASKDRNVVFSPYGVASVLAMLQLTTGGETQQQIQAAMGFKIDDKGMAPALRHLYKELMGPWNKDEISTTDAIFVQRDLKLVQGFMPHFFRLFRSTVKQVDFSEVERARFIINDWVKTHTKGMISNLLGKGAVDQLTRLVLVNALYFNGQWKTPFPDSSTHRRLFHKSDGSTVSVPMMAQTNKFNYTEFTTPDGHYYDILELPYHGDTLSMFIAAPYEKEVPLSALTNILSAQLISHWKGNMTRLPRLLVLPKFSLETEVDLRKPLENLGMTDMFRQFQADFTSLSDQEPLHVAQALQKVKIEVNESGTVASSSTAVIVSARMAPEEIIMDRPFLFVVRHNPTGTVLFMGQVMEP
Compound,inhibition of the complex formation of PAI-1 and tPA observed with SDS-PAGE [1],Inhibitory Ratio at 25 μM (%) ([2]; 25 μM test compound),pIC50 [2],Inhibitory Ratio at 25 μM (%) ([2]; test compound 25 μM)
O=C(Nc1cc(Cl)ccc1Cl)c1cc(C=C2SC(=O)N(Cc3ccc(Cl)c(Cl)c3)C2=O)ccc1O [compound 441],completely inhibited,71,6.32,
O=C(Nc1cc([N+](=O)[O-])ccc1Cl)c1cc(C=C2SC(=O)N(Cc3ccc(Cl)c(Cl)c3)C2=O)ccc1O [compound 473],completely inhibited,70,6.41,
O=C(Nc1cc(C(F)(F)F)ccc1Cl)c1cc(C=C2SC(=O)N(Cc3ccc(Cl)c(Cl)c3)C2=O)ccc1O [compound 423],completely inhibited,75,,
O=C(Nc1cc(O)c(O)c(O)c1)c1cc(C=C2SC(=O)N(Cc3ccc(Cl)c(Cl)c3)C2=O)ccc1O [compound 435],completely inhibited,71,,
O=C1SC(=Cc2cc(O)c(O)c([N+](=O)[O-])c2)C(=O)N1Cc1ccc(Cl)c(Cl)c1 [compound 347],completely inhibited,>99,6.35,
O=C(Nc1ccc(O)c(O)c1)c1cc(C=C2SC(=O)N(Cc3ccc(C(F)(F)F)cc3)C2=O)ccc1O [compound 402],completely inhibited,92,,
O=C(Nc1cccc(OC(F)(F)F)c1)c1cc(C=C2SC(=O)N(Cc3ccc(Cl)c(Cl)c3)C2=O)cc(O)c1O [compound 475],completely inhibited,53,6.28,
CCOC1=NN(c2ccc([N+](=O)[O-])cc2)C(=O)C1=Cc1cc(/C=C/c2ccccc2)ccc1O [compound 517],completely inhibited,>99,6.32,
"O=C(Cc1cccc(Oc2ccccc2)c1)Nc1ccc(CN2C(=O)SC(=Cc3cccc(O)c3O)C2=O)cc1 [compound 312, 5-(2,3-Dihydroxybenzylidene)-3-{4-[(3-phenoxyphenyl)acetylamino]-benzyl}thiazolidine-2,4-dione]",completely inhibited,>99,6.54,
"O=C(Cc1cccc(Oc2ccccc2)c1)Nc1cccc(CN2C(=O)SC(=Cc3cccc(O)c3O)C2=O)c1 [compound 320, 5-(2,3-Dihydroxybenzylidene)-3-{3-[(3-phenoxyphenyl)acetylamino]-benzyl}thiazolidine-2,4-dione]",completely inhibited,>99,6.47,
"O=C1SC(=Cc2cccc(O)c2O)C(=O)N1Cc1cccc(Cl)c1Cl [compound 18, 5-(2,3-Dihydroxybenzylidene)-3-(2,3-dichlorobenzyl)thiazolidine-2,4-dione]",completely inhibited,,6.42,>99
CC(C)C1=NN(c2cc(Cl)cc(Cl)c2)C(=O)C1=Cc1cc(O)c(O)cc1O [compound 504],completely inhibited,89,6.54,
O=C(Nc1ccc(O)c(O)c1)c1cc(C=C2SC(=O)N(Cc3cc(C(F)(F)F)cc(C(F)(F)F)c3)C2=O)ccc1O [compound 384],completely inhibited,91,,
"CC(C)C1=NN(c2ccc(F)c(Cl)c2)C(=O)C1=Cc1cc(O)c(O)cc1O [compound 515, 4-(2,4,5-Trihydroxybenzylidne)-1-(3-chloro-4-fluorophenyl)-3-isopropyl-2-pyrazolin-5-one]",completely inhibited,>99,6.30,
O=C(Nc1ccc(O)c(O)c1)c1cc(C=C2SC(=O)N(Cc3ccc(Cl)c(Cl)c3)C2=O)ccc1O [compound 352],completely inhibited,66,,
"O=C(Cc1cc(C(F)(F)F)cc(C(F)(F)F)c1)Nc1ccc(CN2C(=O)SC(=Cc3cccc(O)c3O)C2=O)cc1 [compound 317, 5-(2,3-Dihydroxybenzylidene)-3-{4-[3,5-Bis(trifluoromethyl)-phenylacetylamino]benzyl}thiazolidine-2,4-dione]",completely inhibited,>99,6.38,
O=C1C(=Cc2cc(O)c(O)cc2O)C(c2ccccc2)=NN1c1cc(Cl)cc(Cl)c1 [compound 136],completely inhibited,,6.41,>99
"O=C1SC(=Cc2cccc(O)c2O)C(=O)N1Cc1ccc(Cl)cc1Cl [compound 22, 5-(2,3-Dihydroxybenzylidene)-3-(2,4-dichlorobenzyl)thiazolidine-2,4-dione]",completely inhibited,,6.36,>99
"O=C1SC(=Cc2cccc(O)c2O)C(=O)N1Cc1ccc(C(F)(F)F)cc1 [compound 43, 5-(2,3-Dihydroxybenzylidene)-3-[4-(trifluoromethyl)benzyl]thiazolidine-2,4-dione]",completely inhibited,,6.44,>99
"O=C(Nc1ccc(CN2C(=O)SC(=Cc3cccc(O)c3O)C2=O)cc1)c1ccc(Oc2ccccc2)cc1 [compound 316, 5-(2,3-Dihydroxybenzylidene)-3-[4-(4-phenoxybenzoylamino)benzyl]-thiazolidine-2,4-dione]",completely inhibited,>99,6.34,
"O=C1SC(=Cc2cccc(O)c2O)C(=O)N1Cc1ccc(C=Cc2ccccc2)cc1 [compound 56, 5-(2,3-Dihydroxybenzylidene)-3-(4-styrylbenzyl)thiazolidine-2,4-dione]",completely inhibited,,6.85,>99
"Cc1cc(C=C2SC(=O)N(Cc3ccc(Cl)c(Cl)c3)C2=O)cc(C(=O)Nc2ccc(O)c(O)c2)c1O [compound 401, 5-[3-Methyl-4-hydroxy-5-(3,4-dihydroxyphenylcarbamoyl)-benzylidene]-3-(3,4-dichlorobenzyl)thiazolidine-2,4-dione]",completely inhibited,96,,
"O=C1C(=Cc2ccc(O)c(O)c2)SC(=S)N1Cc1ccc(Cl)c(Cl)c1 [compound 81, 5-(3,4-Dihydroxybenzylidene)-3-(3,4-dichlorobenzyl)rhodanine]",completely inhibited,,6.64,>99
O=C(Nc1cccc(O)c1O)c1cc(C=C2SC(=O)N(Cc3ccc(Cl)c(Cl)c3)C2=O)ccc1O [compound 436],completely inhibited,>99,6.68,
CCOC1=NN(c2ccc([N+](=O)[O-])cc2)C(=O)C1=Cc1cc(O)c(O)cc1O [compound 156],completely inhibited,,6.52,70
"CC(C)C1=NN(c2ccc(Cl)c(Cl)c2)C(=O)C1=Cc1cc(O)c(O)cc1O [compound 141, 4-(2,4,5-trihydroxybenzylidene)-1-(3,4-dichlorophenyl)-3-isopropyl-2-pyrazolin-5-one]",completely inhibited,,6.62,>99
"COc1cc(C=C2SC(=O)N(Cc3ccc(Cl)c(Cl)c3)C2=O)cc(C(=O)Nc2ccc(O)c(O)c2)c1O [compound 349, 5-[3-Methoxy-4-hydroxy-5-(3,4-dihydroxyphenylcarbamoyl)-benzylidene]-3-(3,4-dichlorobenzyl)thiazolidine-2,4-dione]",completely inhibited,87,6.24,
"N=C(N)NCCC[C@H](N)C(=O)O.N=C(N)NCCC[C@H](N)C(=O)O.N=C(N)NCCC[C@H](N)C(=O)O.O=C1SC(=Cc2cc(O)c(O)c(O)c2)C(=O)N1Cc1ccc(Cl)c(Cl)c1 [compound 334, tri(L-(+)-arginine) salt of 5-(3,4,5-trihydroxybenzylidene)-3-(3,4-dichlorobenzyl)thiazolidine-2,4-dione]",completely inhibited,>99,6.27,
"O=C1SC(=Cc2cccc(O)c2O)C(=O)N1Cc1ccc(Br)cc1 [compound 36, 5-(2,3-Dihydroxybenzylidene)-3-(4-bromobenzyl)thiazolidine-2,4-dione]",completely inhibited,,6.35,>99
CC1=NN(c2ccc(Cl)c(Cl)c2)C(=O)C1=Cc1cc(O)c(O)cc1O [compound 503],completely inhibited,>99,,
